Calls of active or inactive are those of the source.
Experiments:
Phospholipase A2 = Phospholipase A2 (Homo sapiens, UniProt P04054); format: functional;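 also: confirmatory dose-response counterscreen on phospholipase A2, testing hits that came from an ultra-high-throughput screen for ATG4B inhibitors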
[1] = viability of PTEN-deleted HCT116 cells – cell-based, HCT116 PTEN knockout, dose response (AID 1047); format: functional;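 also: HCT116 colon tumor cells with PTEN knocked out; cells exposed to compound for 60 hours before readout; potency for loss of cell viability measured by luminescence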
[2] = target: C-C chemokine receptor type 6 (Homo sapiens, UniProt P51684); assay: antagonism of CCR6 beta-arrestin recruitment – cell-based, luminescent beta-arrestin readout, dose response (AID 504728); format: functional
Sequence of C-C chemokine receptor type 6 (P51684 whole entry): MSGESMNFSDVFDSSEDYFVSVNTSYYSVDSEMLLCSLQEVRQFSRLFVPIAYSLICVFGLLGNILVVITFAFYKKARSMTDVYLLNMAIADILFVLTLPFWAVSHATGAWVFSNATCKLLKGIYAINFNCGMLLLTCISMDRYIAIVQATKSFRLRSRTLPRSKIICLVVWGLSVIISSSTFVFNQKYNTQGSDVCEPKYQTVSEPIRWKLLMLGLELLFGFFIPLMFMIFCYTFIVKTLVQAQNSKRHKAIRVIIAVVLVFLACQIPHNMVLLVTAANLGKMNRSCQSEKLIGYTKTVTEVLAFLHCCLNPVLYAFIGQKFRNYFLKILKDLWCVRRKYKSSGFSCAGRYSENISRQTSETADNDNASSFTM

Streptokinase A = target: T1, Streptokinase A (Streptococcus pyogenes serotype M1, UniProt P10520); assay: viability-normalized secreted streptokinase activity reduction – plasminogen activation absorbance, OD405, dose response (AID 1914); format: functional, Streptococcus pyogenes M1 GAS;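 also: secreted streptokinase activity via plasminogen activation per viability signal from cell pellet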
T1 sequence (P10520 whole entry): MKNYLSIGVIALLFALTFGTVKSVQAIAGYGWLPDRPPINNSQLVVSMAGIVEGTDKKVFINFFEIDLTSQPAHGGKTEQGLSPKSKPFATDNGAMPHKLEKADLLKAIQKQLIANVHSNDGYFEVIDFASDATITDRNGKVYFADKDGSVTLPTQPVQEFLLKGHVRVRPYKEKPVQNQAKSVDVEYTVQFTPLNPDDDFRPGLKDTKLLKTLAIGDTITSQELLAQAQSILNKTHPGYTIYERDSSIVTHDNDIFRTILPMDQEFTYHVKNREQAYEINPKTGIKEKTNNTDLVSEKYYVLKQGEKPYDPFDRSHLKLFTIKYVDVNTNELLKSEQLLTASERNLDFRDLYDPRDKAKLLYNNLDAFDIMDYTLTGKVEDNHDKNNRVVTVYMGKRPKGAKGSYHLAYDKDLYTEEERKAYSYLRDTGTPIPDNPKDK

[3] = target: T2, Sentrin-specific protease 8 (Homo sapiens, UniProt Q96LD8); assay: inhibition of human SENP8 cleavage activity – biochemical, luminescence, SAR follow-up (AID 504501); format: functional
T2 sequence (Q96LD8 whole entry): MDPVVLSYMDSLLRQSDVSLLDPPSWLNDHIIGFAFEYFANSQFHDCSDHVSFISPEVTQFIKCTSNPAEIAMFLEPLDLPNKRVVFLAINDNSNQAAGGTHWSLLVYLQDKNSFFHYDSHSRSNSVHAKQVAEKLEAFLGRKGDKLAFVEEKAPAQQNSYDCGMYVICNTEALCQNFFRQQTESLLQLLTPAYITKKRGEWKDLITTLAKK

Vero = assay: cells; format: functional, cell-based; conditions: Chlorocebus sabaeus
[4] = target: T3, Sentrin-specific protease 7 (Homo sapiens, UniProt Q9BQF6); assay: inhibition of human SENP7 cleavage activity – biochemical, luminescence, SAR follow-up (AID 504497); format: functional
T3 sequence (Q9BQF6 whole entry): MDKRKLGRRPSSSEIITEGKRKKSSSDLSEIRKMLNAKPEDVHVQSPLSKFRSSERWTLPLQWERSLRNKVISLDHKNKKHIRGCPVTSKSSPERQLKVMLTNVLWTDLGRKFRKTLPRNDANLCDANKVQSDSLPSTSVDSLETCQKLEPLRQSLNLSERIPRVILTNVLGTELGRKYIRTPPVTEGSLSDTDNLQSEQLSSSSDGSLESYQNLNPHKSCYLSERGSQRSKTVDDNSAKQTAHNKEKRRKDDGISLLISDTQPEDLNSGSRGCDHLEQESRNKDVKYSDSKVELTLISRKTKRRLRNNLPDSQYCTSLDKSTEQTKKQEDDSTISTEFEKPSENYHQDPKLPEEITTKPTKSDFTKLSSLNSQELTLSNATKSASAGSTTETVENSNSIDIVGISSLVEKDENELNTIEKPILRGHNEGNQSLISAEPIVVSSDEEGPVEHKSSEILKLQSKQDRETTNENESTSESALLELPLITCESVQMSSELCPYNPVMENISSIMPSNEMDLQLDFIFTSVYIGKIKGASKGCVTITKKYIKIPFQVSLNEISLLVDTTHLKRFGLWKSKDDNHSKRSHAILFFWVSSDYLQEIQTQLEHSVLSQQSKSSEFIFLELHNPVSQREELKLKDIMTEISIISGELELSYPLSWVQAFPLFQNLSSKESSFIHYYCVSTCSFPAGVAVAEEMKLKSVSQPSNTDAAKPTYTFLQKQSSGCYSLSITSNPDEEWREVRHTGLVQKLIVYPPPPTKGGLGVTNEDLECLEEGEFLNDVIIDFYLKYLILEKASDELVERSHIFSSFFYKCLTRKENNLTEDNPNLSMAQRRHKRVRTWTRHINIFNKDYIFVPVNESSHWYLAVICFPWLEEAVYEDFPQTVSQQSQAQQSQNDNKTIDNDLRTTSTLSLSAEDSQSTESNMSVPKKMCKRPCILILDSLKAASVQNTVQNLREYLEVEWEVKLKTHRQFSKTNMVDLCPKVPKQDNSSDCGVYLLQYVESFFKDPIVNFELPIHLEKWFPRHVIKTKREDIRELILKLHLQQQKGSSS

BJ [5] = assay: cells; format: functional, cell-based; conditions: Homo sapiens
[6] = target: Sphingosine 1-phosphate receptor 4 (Homo sapiens, UniProt O95977); assay: Fluorescence dose response cell-based high throughput screening assay for antagonists of the Sphingosine 1-Phosphate Receptor 4 (S1P4). [Related pubchem assays: 1524 (Confirmation in triplicates.), 1510 (Primary screen.)]; format: functional
Sequence of Sphingosine 1-phosphate receptor 4 (O95977 whole entry): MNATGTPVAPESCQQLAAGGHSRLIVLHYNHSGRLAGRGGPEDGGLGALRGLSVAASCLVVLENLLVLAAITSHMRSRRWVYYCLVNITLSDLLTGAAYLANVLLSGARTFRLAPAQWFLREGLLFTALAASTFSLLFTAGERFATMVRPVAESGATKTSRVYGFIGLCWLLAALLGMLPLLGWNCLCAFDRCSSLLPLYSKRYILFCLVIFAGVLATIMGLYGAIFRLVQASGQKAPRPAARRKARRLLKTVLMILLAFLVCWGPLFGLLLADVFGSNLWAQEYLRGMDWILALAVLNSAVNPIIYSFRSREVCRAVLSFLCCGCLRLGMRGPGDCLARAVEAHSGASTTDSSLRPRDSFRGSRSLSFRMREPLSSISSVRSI

[7] = target: Sphingosine 1-phosphate receptor 1 (Homo sapiens, UniProt P21453); format: functional;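 also: Tango beta-arrestin reporter U2OS cells stimulated with S1P near its EC80; inhibitor potency meaning antagonism of receptor activation by the natural agonist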
Sequence of Sphingosine 1-phosphate receptor 1 (P21453 whole entry): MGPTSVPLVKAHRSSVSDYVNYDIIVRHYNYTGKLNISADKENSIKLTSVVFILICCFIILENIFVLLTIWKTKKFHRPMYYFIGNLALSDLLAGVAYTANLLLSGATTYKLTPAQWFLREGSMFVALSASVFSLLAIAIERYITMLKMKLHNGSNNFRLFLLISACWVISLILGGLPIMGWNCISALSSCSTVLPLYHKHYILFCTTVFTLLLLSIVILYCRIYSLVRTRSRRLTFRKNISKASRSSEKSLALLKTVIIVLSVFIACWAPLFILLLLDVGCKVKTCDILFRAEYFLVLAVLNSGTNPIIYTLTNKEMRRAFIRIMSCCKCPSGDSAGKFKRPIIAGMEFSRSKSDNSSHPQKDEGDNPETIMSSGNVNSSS

[8] = target: Neurotensin receptor type 1 (Homo sapiens, UniProt P30989); format: functional;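 also: Image-based confirmatory dose-response assay measuring agonist activity at NTR1; NTR1-expressing U2OS osteosarcoma cells imaged for beta-arrestin GFP spot formation; agonist potency where compounds increase beta-arrestin recruitment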
Sequence of Neurotensin receptor type 1 (P30989 whole entry): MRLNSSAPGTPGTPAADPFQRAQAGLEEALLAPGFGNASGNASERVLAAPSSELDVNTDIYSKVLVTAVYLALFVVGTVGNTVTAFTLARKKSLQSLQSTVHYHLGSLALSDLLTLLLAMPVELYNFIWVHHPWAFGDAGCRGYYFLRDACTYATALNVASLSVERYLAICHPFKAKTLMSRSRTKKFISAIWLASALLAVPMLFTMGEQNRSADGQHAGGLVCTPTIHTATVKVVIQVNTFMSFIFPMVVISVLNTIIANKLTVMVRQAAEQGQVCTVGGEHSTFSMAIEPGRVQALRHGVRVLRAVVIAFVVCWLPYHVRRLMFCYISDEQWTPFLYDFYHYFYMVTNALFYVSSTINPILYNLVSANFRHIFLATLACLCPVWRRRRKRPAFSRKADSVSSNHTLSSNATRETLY

BJ [9] = assay: growth inhibition of engineered Ras-driven BJ cells – cell-based, alamar blue fluorescence, cherrypicked samples, dose response (AID 2631); format: functional; conditions: Homo sapiens;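 also: confirmatory dose-response assay in RAS-dependent BJ fibroblasts engineered with TERT, LT and ST, with cytotoxicity read by fluorescence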
[10] = non-specific 3'UTR reporter inhibition in Clone20-Shn3RL – cell-based, Renilla luciferase, cherry-picked, counter-screen for Shn3 inhibitor project, dose response (AID 624133); format: functional
Beta-galactosidase = Beta-galactosidase (Escherichia coli, UniProt Q8VNN2); assay: PubChem AID 485352; format: functional
Sequence of Beta-galactosidase (Q8VNN2 whole entry): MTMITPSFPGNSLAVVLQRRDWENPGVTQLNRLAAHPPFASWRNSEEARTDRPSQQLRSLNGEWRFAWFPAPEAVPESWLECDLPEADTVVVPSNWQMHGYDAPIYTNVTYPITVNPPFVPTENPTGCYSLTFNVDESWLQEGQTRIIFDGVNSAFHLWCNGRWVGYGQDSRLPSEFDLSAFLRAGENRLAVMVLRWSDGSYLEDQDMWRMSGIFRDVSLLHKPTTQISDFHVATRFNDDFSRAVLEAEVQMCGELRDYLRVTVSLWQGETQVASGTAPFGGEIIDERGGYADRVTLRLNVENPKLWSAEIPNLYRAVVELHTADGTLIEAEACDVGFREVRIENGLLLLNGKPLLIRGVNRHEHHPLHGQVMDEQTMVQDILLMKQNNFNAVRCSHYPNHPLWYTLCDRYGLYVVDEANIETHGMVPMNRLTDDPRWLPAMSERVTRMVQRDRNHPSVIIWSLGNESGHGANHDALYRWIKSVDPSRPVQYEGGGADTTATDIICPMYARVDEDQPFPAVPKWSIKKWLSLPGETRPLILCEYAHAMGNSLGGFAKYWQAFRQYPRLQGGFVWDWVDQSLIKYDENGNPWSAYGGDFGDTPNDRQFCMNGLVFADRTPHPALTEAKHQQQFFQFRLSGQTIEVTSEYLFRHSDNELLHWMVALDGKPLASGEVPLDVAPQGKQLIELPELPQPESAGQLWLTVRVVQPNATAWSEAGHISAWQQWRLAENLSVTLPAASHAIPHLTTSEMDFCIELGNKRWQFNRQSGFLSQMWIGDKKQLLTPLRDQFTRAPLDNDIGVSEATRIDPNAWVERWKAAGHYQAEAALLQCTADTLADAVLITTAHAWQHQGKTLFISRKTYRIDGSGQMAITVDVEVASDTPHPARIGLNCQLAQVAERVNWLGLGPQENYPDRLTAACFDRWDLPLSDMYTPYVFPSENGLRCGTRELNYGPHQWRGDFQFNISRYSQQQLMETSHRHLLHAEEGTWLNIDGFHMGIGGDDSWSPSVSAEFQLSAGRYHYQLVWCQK

[11] = target: T4, Type-1 angiotensin II receptor (Homo sapiens, UniProt P30556); assay: antagonism of angiotensin II type 1 receptor – cell-based, uHTS hits, selectivity assay for APJ receptor antagonist project, dose response (AID 463214); format: functional;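 also: antagonist potency against angiotensin II stimulated AT1 response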
T4 sequence (P30556 whole entry): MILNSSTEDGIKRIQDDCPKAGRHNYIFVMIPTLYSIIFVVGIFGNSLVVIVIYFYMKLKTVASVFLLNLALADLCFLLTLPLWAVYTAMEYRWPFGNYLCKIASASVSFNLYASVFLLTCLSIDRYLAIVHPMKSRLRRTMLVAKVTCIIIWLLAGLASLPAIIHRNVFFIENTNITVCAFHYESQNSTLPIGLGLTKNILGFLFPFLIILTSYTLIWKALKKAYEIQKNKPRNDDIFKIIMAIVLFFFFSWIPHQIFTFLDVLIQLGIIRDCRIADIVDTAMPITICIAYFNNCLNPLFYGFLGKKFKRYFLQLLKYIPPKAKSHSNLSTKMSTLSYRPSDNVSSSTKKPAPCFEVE

Sequence of Phospholipase A2 (P04054 whole entry): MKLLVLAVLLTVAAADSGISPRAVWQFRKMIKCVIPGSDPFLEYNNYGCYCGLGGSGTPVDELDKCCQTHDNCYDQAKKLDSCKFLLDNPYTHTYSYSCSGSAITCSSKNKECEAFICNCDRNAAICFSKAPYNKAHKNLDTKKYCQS

## Cc1ccccc1NC1=C/C(=N\S(=O)(=O)c2ccc(C(=O)O)cc2)c2ccccc2C1=O
Phospholipase A2
  IC50: 15.4 µM (active)

## Cc1ccc(NC2=C/C(=N/S(=O)(=O)c3cccs3)c3ccccc3C2=O)cc1
[1]
  EC50: 3.56 µM (active)
[2]
  IC50: > 66.6 µM (inactive)

## COc1ccc(-c2cc(-c3ccc(C)cc3)[nH]n2)c(O)c1
Streptokinase A
  EC50: > 150 µM (not active)

## O=C(Nc1ccc(C#Cc2ccccc2)cc1)C1CC1
[3]
  IC50: > 99 µM (inactive)
Vero
  IC50: > 12.5 µM (active)
[4]
  IC50: 3.28 µM (active)
cells
  IC50: 7.09 µM (active)

## COC(=O)C[C@]1(C(=O)OC)CN(C#N)N(c2ccc(Cl)cc2)C12c1ccccc1-c1ccccc12
BJ [5]
  EC50: 2.7 µM (active)
[6]
  IC50: 0.341 µM (active)
[7]
  IC50: 5.39 µM (active)
[8]
  EC50: 3.27 µM (active)
BJ [9]
  EC50: 1.07 µM (active)
[10]
  AC50: 1.67 µM (active)

## CCCCn1c(NC(=O)c2ccco2)c(C(=O)OCC)c2nc3ccccc3nc21
Beta-galactosidase
  EC50: > 40 µM (inactive)
[11]
  IC50: 10.4 µM (active)

— ChEMBL document CHEMBL1201862, “PubChem BioAssay data set” (2004)
